Assay [1] deals with HEL92.1.7 (erythroleukemia cell line). The assay can be described thus: Cell-based proliferation assay, HEL92.1.7. Conditions: Homo sapiens, HEL 92.1.7; HEL92.1.7 cells, 96 h treatment. The method, then:
(§1) Human cancer cell lines HL60 (acute myeloid leukemia cell line), Colo205 (colon adenocarcinoma cell line), HEL92.1.7 (erythroleukemia cell line), MV4-11 (acute myeloid leukemia cell line) and DU145 (metastatic prostate cancer cell line) were obtained from ATCC. They were cultivated in the media according to the ATCC work instructions. Colo205 and DU145 cells were seeded in 96-wells plate 5000 cells per cell and 1000 cells per well respectively. HEL92.1.7 and MV4-11 cells were seeded at 6000 cells per well while HL60 cells were seeded at 8000 cells per well in 96 well plate. The plates were incubated at 37° C., 5% CO2, for 24 h. Cells were treated with compounds at various concentrations for 96 h. Cell growth was then monitored using Celltiter96 Aqueous One Solution Cell Proliferation Assay from Promega (Madison Wis.). Dose response curves were plotted to determine GI50 values for the compounds using XL-fit (ID Business Solution, Emeryville, Calif.).

The subject of assay [2] is MV4-11 (acute myeloid leukemia cell line). In words: Cell-based proliferation assay, MV4-11. Conditions: Homo sapiens; MV4-11 cells, 96 h treatment. On the procedure:
as §1

In the next assay the target is T1, FLT3 (Homo sapiens, UniProt P36888).
T1 construct: purchased Invitrogen PV3182
T1 sequence (P36888 27-993): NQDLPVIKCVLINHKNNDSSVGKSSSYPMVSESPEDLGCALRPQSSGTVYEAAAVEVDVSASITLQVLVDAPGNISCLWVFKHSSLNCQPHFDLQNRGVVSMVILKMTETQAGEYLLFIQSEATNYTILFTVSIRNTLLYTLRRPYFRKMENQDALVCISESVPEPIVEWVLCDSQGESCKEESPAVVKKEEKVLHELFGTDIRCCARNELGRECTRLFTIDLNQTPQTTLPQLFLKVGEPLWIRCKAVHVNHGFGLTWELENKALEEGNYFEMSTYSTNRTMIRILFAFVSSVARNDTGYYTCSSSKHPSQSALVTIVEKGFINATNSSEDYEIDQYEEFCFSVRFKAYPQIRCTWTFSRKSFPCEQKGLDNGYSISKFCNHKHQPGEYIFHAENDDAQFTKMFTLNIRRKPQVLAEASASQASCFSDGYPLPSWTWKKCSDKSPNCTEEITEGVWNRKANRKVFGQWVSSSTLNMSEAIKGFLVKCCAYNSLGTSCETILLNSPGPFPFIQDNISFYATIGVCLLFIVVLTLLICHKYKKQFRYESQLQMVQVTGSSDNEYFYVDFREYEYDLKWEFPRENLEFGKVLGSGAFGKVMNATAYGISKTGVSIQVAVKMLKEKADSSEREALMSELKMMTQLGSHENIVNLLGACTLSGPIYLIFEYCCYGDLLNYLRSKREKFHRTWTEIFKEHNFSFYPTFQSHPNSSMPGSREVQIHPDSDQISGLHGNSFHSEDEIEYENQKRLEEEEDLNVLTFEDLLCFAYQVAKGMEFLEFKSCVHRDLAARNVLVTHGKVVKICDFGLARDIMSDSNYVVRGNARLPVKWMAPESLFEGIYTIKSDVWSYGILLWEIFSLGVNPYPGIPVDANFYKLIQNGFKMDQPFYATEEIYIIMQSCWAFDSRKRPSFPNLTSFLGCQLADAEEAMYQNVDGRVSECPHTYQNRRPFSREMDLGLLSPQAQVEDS
In words: In vitro kinase activity assay (PKLight), FLT3. It is filed as biochemical. Conditions: recombinant FLT3, poly(Glu,Tyr) substrate, 4 μM ATP. On the procedure:
The recombinant enzymes (CDK2/CyclinA, FLT3, JAK2 and JAK2 V617F) were purchased from Invitrogen (Cat # PV3267, 3182, 4210 and 4347 respectively). All assays were carried out in 384-well white microtiter plates using the PKLight assay system from Cambrex (East rutherford, N.J.). This assay platform is essentially a luminometdc assay for the detection of ATP in the reaction using a luciferase-coupled reaction. For CDK2/Cyclin A assay, the reaction mixture consisted of the following components in 25 μL assay buffer (50 mM Hepes pH 7.5, 10 mM MgCl2, 5 mM MnCl2, 5 mM BGP, 1 mM DTT, 0.1 mM sodium orthovanadate), 1.4 μg/mL of CDK2/Cyclin A complex, 0.5 μM of RbING substrate (Invitrogen, Cat # PV2939) and 0.5 μM of ATP. The compounds were tested at 8 concentrations prepared from 4-fold serial dilution starting at 10 μM. The reaction was incubated at room temperature for 2 hr. 13 μL of PKLight ATP detection reagent was added and the reaction was incubated for 10 min. Luminescence signals were detected on a multi-label plate reader (Victor^2 V 1420, Perkin-Elmer). The other kinase assays were identical except for the following differences in reagents. For FLT3 assays, the reaction contained 2.0 μg/mL FLT3 enzyme, 5 μM of poly(Glu,Tyr) substrate (Sigma, Cat # P0275) and 4 μM of ATP. For JAK2 assays, the reaction contained 0.6 μg/mL of JAK2 enzyme, 2 μM of poly(Glu,Ala,Tyr) substrate (Sigma, Cat # P3899) and 0.2 μM of ATP. For JAK2 V617F mutant assays, the reaction contained 8.0 μg/mL of JAK2 mutant enzyme, 2 μM of poly(Glu,Ala,Tyr) substrate (Sigma, Cat # P3899) and 0.2 μM of ATP. The analytical software, Prism 4.0 (GraphPad Software Pte Ltd) was used to generate IC50 values from the data. […] IC50 values are shown below in Table 3.

Assay [3] has as its system DU145 (metastatic prostate cancer cell line). The assay can be described thus: Cell-based proliferation assay, DU145. Particulars: Homo sapiens, DU-145; DU145 cells, 96 h treatment. The method, then: as §1
The subject of assay [4] is Colo205 (colon adenocarcinoma cell line). In words: Cell-based proliferation assay, Colo205. Particulars: Homo sapiens, COLO 205; Colo205 cells, 96 h treatment. On the procedure: as §1
A further assay addresses T2, JAK2 V617F (Homo sapiens, UniProt O60674, V617F).
T2 construct: purchased Invitrogen PV4347
The assay can be described thus: In vitro kinase activity assay (PKLight), JAK2 V617F mutant. Particulars: recombinant JAK2 V617F mutant, poly(Glu,Ala,Tyr) substrate, 0.2 μM ATP. It is filed as biochemical. On the procedure:
(§2) All assays were carried out in 384-well white microtiter plates using the PKLight assay system from Cambrex (East rutherford, N.J.). This assay platform is essentially a luminometdc assay for the detection of ATP in the reaction using a luciferase-coupled reaction. For CDK2/Cyclin A assay, the reaction mixture consisted of the following components in 25 μL assay buffer (50 mM Hepes pH 7.5, 10 mM MgCl2, 5 mM MnCl2, 5 mM BGP, 1 mM DTT, 0.1 mM sodium orthovanadate), 1.4 μg/mL of CDK2/Cyclin A complex, 0.5 μM of RbING substrate (Invitrogen, Cat # PV2939) and 0.5 μM of ATP. The compounds were tested at 8 concentrations prepared from 4-fold serial dilution starting at 10 μM. The reaction was incubated at room temperature for 2 hr. 13 μL of PKLight ATP detection reagent was added and the reaction was incubated for 10 min. Luminescence signals were detected on a multi-label plate reader (Victor^2 V 1420, Perkin-Elmer). The other kinase assays were identical except for the following differences in reagents. For FLT3 assays, the reaction contained 2.0 μg/mL FLT3 enzyme, 5 μM of poly(Glu,Tyr) substrate (Sigma, Cat # P0275) and 4 μM of ATP. For JAK2 assays, the reaction contained 0.6 μg/mL of JAK2 enzyme, 2 μM of poly(Glu,Ala,Tyr) substrate (Sigma, Cat # P3899) and 0.2 μM of ATP. […] The analytical software, Prism 4.0 (GraphPad Software Pte Ltd) was used to generate IC50 values from the data.

Assay [5] deals with HL60 (acute myeloid leukemia cell line). The assay can be described thus: Cell-based proliferation assay, HL60. Particulars: Homo sapiens, HL-60; HL60 cells, 96 h treatment. On the procedure:
as §1

For a further assay, the target named is T3, JAK2 (Homo sapiens, UniProt O60674).
T3 construct: purchased Invitrogen PV4210
In words: In vitro kinase activity assay (PKLight), JAK2. It is filed as biochemical. Conditions: recombinant JAK2, poly(Glu,Ala,Tyr) substrate, 0.2 μM ATP. On the procedure: as §2

The next assay deals with T4, CDK2/CyclinA (Homo sapiens, UniProt P24941).
T4 construct: purchased Invitrogen PV3267
The assay can be described thus: In vitro kinase activity assay (PKLight), CDK2/Cyclin A. Particulars: recombinant CDK2/Cyclin A, RbING substrate, 0.5 μM ATP, 2 hr. It is filed as biochemical. On the procedure:
as §2

T3 sequence (O60674 whole entry): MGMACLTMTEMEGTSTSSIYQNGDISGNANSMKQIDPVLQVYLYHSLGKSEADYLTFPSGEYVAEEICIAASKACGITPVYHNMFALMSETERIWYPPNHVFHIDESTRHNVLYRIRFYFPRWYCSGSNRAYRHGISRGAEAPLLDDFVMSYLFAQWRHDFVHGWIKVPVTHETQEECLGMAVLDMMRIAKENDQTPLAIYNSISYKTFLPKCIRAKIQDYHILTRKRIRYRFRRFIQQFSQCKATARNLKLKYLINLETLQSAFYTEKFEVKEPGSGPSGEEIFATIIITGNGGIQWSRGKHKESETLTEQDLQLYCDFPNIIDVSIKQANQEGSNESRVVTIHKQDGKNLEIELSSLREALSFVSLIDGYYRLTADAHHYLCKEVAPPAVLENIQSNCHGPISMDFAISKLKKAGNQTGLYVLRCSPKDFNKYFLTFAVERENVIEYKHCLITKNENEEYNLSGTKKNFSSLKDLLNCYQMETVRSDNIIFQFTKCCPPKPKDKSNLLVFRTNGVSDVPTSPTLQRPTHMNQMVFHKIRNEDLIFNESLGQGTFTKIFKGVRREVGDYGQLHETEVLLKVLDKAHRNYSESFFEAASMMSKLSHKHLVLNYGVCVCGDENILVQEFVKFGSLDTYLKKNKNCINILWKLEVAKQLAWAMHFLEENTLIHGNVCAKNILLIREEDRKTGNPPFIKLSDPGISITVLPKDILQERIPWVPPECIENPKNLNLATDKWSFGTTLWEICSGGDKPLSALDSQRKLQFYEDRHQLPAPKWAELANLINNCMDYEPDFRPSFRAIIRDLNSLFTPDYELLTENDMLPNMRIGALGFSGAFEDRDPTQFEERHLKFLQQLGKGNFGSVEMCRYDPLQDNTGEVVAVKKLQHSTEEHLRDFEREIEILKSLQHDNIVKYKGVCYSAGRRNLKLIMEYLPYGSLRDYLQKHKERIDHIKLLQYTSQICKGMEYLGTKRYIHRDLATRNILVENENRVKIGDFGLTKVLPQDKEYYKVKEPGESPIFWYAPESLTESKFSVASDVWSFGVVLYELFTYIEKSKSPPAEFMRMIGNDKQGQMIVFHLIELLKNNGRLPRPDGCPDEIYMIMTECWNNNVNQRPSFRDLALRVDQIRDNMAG
T2 sequence (O60674 whole entry V617F): as the sequence (O60674 whole entry) above, with V617F counted along it

Take `CN1C/C=C/CCOc2cccc(c2)-c2ccnc(n2)Nc2cccc(c2)C1` [Compound 1]: the GI50 in assay [1], in assay [2], in assay [3], in assay [4] and in assay [5] was no more than 1000 nM in each case. For the same compound, the IC50 at FLT3, on JAK2 V617F and at JAK2 was no more than 1000 nM each time.

With `O=C1NC/C=C/COCc2cccc(c2)Nc2nccc(n2)-c2cccc1c2` [Compound 17], the GI50 in assay [1], in [2], in assay [3], in assay [4] and in [5] was greater than 5000 nM throughout. For the same compound, the IC50 at CDK2/CyclinA is greater than 5000 nM; on FLT3, 1000 to 5000 nM; on JAK2 V617F, no more than 1000 nM; on JAK2, no more than 1000 nM.

`CN1Cc2cccc(c2)Nc2nccc(n2)-c2cccc(c2)OCCC2CC2C1` (centres unmarked) [Compound 20]: the IC50 on CDK2/CyclinA, on FLT3, on JAK2 V617F and on JAK2 was no more than 1000 nM each time. Also, the GI50 in assay [4] and in [5] was no more than 1000 nM throughout.

On to `CCN(CC)CCOc1ccc2cc1CN(C)C/C=C/CCOc1cccc(c1)-c1ccnc(n1)N2` [Compound 32], for which the GI50 in assay [1], in [2], in assay [3], in assay [4] and in assay [5] was no more than 1000 nM each time. The IC50 on CDK2/CyclinA, on FLT3, at JAK2 V617F and at JAK2 was no more than 1000 nM throughout.

For the compound `CN1C/C=C/CCOc2cc(F)cc(c2)-c2ccnc(n2)Nc2cccc(c2)C1` [Compound 35], the GI50 in [1], in assay [2], in assay [3], in assay [4] and in [5] was no more than 1000 nM throughout. Also, the IC50 at CDK2/CyclinA, at FLT3 and on JAK2 was no more than 1000 nM throughout.

Take `C1=C/CN(C2CC2)Cc2cc(ccc2OCCN2CCOCC2)Nc2nccc(n2)-c2cccc(c2)OCC/1` [Compound 36]: the GI50 is 1000 to 5000 nM in assay [1]; no more than 1000 nM in [2]; greater than 5000 nM in [3]; 1000 to 5000 nM in assay [4]; no more than 1000 nM in [5]. Moreover, the IC50 at CDK2/CyclinA, on FLT3, on JAK2 V617F and on JAK2 was no more than 1000 nM each time.

For `CN1C/C=C/CCOc2cccc(c2)-c2ccnc(n2)Nc2ccc(N3CCOCC3)c(c2)C1` [Compound 39], the GI50 in assay [1], in assay [2] and in assay [5] was no more than 1000 nM throughout. Besides, the IC50 at CDK2/CyclinA, at FLT3, on JAK2 V617F and on JAK2 was no more than 1000 nM in each case.

With `CN1C/C=C/CCOc2cccc(c2)-c2ccnc(n2)Nc2ccc(OCCN3CCCC3)c(c2)C1` [Compound 40], the GI50 in assay [1], in [2], in assay [3], in assay [4] and in assay [5] was no more than 1000 nM throughout. Besides, the IC50 on CDK2/CyclinA, on FLT3, on JAK2 V617F and on JAK2 was no more than 1000 nM in each case.

As to `CN1C/C=C/CCOc2cc(F)cc(c2)-c2ccnc(n2)Nc2ccc(OCCN3CCCC3)c(c2)C1` [Compound 52], the GI50 in [1], in [2], in [3], in assay [4] and in assay [5] was no more than 1000 nM throughout. Besides, the IC50 on CDK2/CyclinA, at FLT3, at JAK2 V617F and on JAK2 was no more than 1000 nM throughout.

For the origin of these results see patent US8143255B2, “Heteroalkyl linked pyrimidine derivatives” (S*BIO Pte Ltd., priority 2005, dated 2012).
